Data as given in patent publication JPH01254654A, “スルホン酸の誘導体及びその塩” (Dainippon Pharmaceutical Co Ltd, priority 1988, dated 1989).

Key:
[1] = intracerebroventricular or parenteral administration; cited from earlier work
[2] = Analgesic action on oral administration (mean writhing number; method of JP 62-270555); type: in vivo; conditions: 200mg/kg

For `O=C(O)CNC(=O)C(CS)Cc1ccccc1` (racemic) [チオルファン, ((It、L)−2−メルカプトメチル−3−フェニルプロピオニル〕グリシン], the analgesic action [1] is given as “鎮痛作用を有する”.
With `CC(=O)SCC(CC1CN(Cc2ccccc2)CCO1)C(=O)Nc1ccc(S(=O)(=O)[O-])cc1.[Na+]` (centres unmarked) [実施例1] the “inhibition rate (analgesic action; (A-B) x 100/A, A: mean writhing number of control group, B: that of test substance group)” value [2] was 61.6 χ.
